In ChEMBL document CHEMBL1127015, “Centrally acting serotonergic and dopaminergic agents. 1. Synthesis and structure-activity relationships of 2,3,3a,4,5,9b-hexahydro-1H-benz[e]indole derivatives” (J Med Chem, 1993):

Experiments:
D(2) dopamine receptor [1] = target: T1, D(2) dopamine receptor (Homo sapiens, UniProt P14416); experiment: Binding affinity against [3H]U-86,170-labeled dopamine receptor D2 in cloned CHO cells; assay type: cell-based
D(2) dopamine receptor [2] = target: T1, D(2) dopamine receptor; experiment: Intrinsic activity from GTP shift using membranes from CHO cells transfected with mammalian dopamine receptor D2.; assay type: cell membranes
D(2) dopamine receptor [3] = target: T2, D(2) dopamine receptor (Rattus norvegicus, UniProt P61169); experiment: Binding affinity against [3H]raclopride-labeled dopamine receptor D2 in rat striatum.; assay type: tissue-based
T2 sequence (P61169 whole entry): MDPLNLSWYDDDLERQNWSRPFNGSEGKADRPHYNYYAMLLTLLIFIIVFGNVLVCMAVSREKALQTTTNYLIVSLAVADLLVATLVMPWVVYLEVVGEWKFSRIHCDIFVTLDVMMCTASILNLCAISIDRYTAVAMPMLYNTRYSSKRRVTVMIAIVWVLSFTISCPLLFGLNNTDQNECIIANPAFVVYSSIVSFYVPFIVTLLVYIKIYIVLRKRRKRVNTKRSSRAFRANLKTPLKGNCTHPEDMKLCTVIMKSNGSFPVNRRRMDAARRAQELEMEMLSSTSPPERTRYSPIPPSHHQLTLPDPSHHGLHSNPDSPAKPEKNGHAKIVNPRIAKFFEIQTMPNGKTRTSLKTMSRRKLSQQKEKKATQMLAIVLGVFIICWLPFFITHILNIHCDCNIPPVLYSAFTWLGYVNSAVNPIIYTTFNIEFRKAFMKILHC

Mus musculus [4] = experiment: Increase in locomotor activity in reserpinized mice following 0.4 umol/kg i.p.; assay type: functional
Mus musculus [5] = experiment: Maximum decrease in temperature when compound is administered subcutaneously; assay type: functional
Mus musculus [6] = experiment: Antagonism of apomorphine effects for 10-20 minutes in reserpinized mice following 0.4 umol/kg i.p.; assay type: functional
Mus musculus [7] = experiment: Antagonism of apomorphine effects in reserpinized mice following 0.4 umol/kg i.p.; assay type: functional
Mus musculus [8] = experiment: Antagonism of apomorphine for 0-10 minutes in reserpinized mice when a dose of 35 micro mol/kg is administered intraperitoneally; assay type: functional
Mus musculus [9] = experiment: Ability to stimulate dopaminergic systems by effect on locomotor activity in reserpinized mice when a dose of 35 micro mol/kg is administered intraperitoneally; assay type: functional
Mus musculus [10] = experiment: Antagonism of apomorphine effects for 0-10 minutes in reserpinized mice following 0.4 umol/kg i.p.; assay type: functional; parameters: unit not given beside the values
Mus musculus [11] = experiment: Ability to stimulate dopaminergic systems by effect on locomotor activity in reserpinized mice when a dose of 3.5 micro mol/kg is administered intraperitoneally; assay type: functional
Mus musculus [12] = experiment: Antagonism of apomorphine for 0-10 minutes in reserpinized mice when a dose of 3.5 micro mol/kg is administered intraperitoneally; assay type: functional
Mus musculus [13] = experiment: Antagonism of apomorphine in reserpinized mice when a dose of 3.5 micro mol/kg is administered intraperitoneally; assay type: functional
Mus musculus [14] = experiment: Antagonism of apomorphine for 10-20 minutes in reserpinized mice when a dose of 3.5 micro mol/kg is administered intraperitoneally; assay type: functional
Mus musculus [15] = experiment: Antagonism of apomorphine in reserpinized mice when a dose of 35 micro mol/kg is administered intraperitoneally; assay type: functional
Mus musculus [16] = experiment: Effective dose on hypothermia in mouse when administered subcutaneously; assay type: functional; conditions: sc
Mus musculus [17] = experiment: Antagonism of apomorphine for 10-20 minutes in reserpinized mice when a dose of 35 micro mol/kg is administered intraperitoneally; assay type: functional
Mus musculus [18] = experiment: Antagonism of apomorphine for 10-20 minutes in reserpinized mice when a dose of 38 micro mol/kg is administered intraperitoneally; assay type: functional
Mus musculus [19] = experiment: Antagonism of apomorphine in reserpinized mice when a dose of 3.8 micro mol/kg is administered intraperitoneally; assay type: functional
Mus musculus [20] = experiment: Antagonism of apomorphine in reserpinized mice when a dose of 38 micro mol/kg is administered intraperitoneally; assay type: functional
Mus musculus [21] = experiment: Antagonism of apomorphine for 10-20 minutes in reserpinized mice when a dose of 3.8 micro mol/kg is administered intraperitoneally; assay type: functional
Mus musculus [22] = experiment: Ability to stimulate dopaminergic systems by effect on locomotor activity in reserpinized mice when a dose of 3.8 micro mol/kg is administered intraperitoneally; assay type: functional
Mus musculus [23] = experiment: Antagonism of apomorphine for 0-10 minutes in reserpinized mice when a dose of 38 micro mol/kg is administered intraperitoneally; assay type: functional
Mus musculus [24] = experiment: Ability to stimulate dopaminergic systems by effect on locomotor activity in reserpinized mice when a dose of 38 micro mol/kg is administered intraperitoneally; assay type: functional
Mus musculus [25] = experiment: Antagonism of apomorphine for 0-10 minutes in reserpinized mice when a dose of 3.8 micro mol/kg is administered intraperitoneally; assay type: functional
Mus musculus [26] = experiment: Effective dose on hypothermia in mouse when administered through peroral route; assay type: functional; conditions: po
D(2) dopamine receptor [27] = target: T2, D(2) dopamine receptor; experiment: Inhibitory concentration against [3H]raclopride-labeled dopamine receptor D2 in rat striatum; assay type: tissue-based
Mus musculus [28] = experiment: Maximum decrease in temperature when compound is administered through peroral route; assay type: functional
Rattus norvegicus [29] = experiment: Inhibition of firing rates of dopaminergic neurons in the substantia nigra pars compacta by intravenous injection in rats.; assay type: functional; conditions: Rattus norvegicus, Substantia nigra pars compacta, iv; read-out: ED50
Mus musculus [30] = experiment: Time of effect in the face-to-face behavioral assay in the mouse when a dose of 0.0 micro mol/kg is administered perorally; assay type: functional
Mus musculus [31] = experiment: Antagonism of apomorphine for 0-10 minutes in reserpinized mice when a dose of 3.6 micro mol/kg is administered intraperitoneally; assay type: functional
Mus musculus [32] = experiment: Time of effect in the isolation-induced aggression behavioral assay in the mouse when a dose of 0.0 micro mol/kg is administered perorally; assay type: functional
Mus musculus [33] = experiment: Antagonism of apomorphine for 10-20 minutes in reserpinized mice when a dose of 36 micro mol/kg is administered intraperitoneally; assay type: functional
Mus musculus [34] = experiment: Time of effect in the face-to-face behavioral assay in the mouse when a dose of 3.6 micro mol/kg is administered perorally; assay type: functional
Mus musculus [35] = experiment: Time of effect in the face-to-face behavioral assay in the mouse when a dose of 0.4 micro mol/kg is administered perorally; assay type: functional
Mus musculus [36] = experiment: Antagonism of apomorphine for 0-10 minutes in reserpinized mice when a dose of 36 micro mol/kg is administered intraperitoneally; assay type: functional
Mus musculus [37] = experiment: Ability to stimulate dopaminergic systems by effect on locomotor activity in reserpinized mice when a dose of 3.6 micro mol/kg is administered intraperitoneally; assay type: functional
Mus musculus [38] = experiment: Antagonism of apomorphine in reserpinized mice when a dose of 36 micro mol/kg is administered intraperitoneally; assay type: functional
Mus musculus [39] = experiment: Time of effect in the face-to-face behavioral assay in the mouse when a dose of 36 micro mol/kg is administered perorally; assay type: functional
Mus musculus [40] = experiment: Antagonism of apomorphine in reserpinized mice when a dose of 3.6 micro mol/kg is administered intraperitoneally; assay type: functional
Mus musculus [41] = experiment: Ability to stimulate dopaminergic systems by effect on locomotor activity in reserpinized mice when a dose of 36 micro mol/kg is administered intraperitoneally; assay type: functional
Mus musculus [42] = experiment: Time of effect in the isolation-induced aggression behavioral assay in the mouse when a dose of 36 micro mol/kg is administered perorally; assay type: functional
Mus musculus [43] = experiment: Antagonism of apomorphine for 10-20 minutes in reserpinized mice when a dose of 3.6 micro mol/kg is administered intraperitoneally; assay type: functional
Rattus norvegicus [44] = experiment: Inhibition of firing rates of dopaminergic neurons in the substantia nigra pars compacta by intravenous injection in rats; assay type: functional
Rattus norvegicus [45] = experiment: Inhibition of firing rates of serotonergic neurons in the dorsal raphe nucleus by intravenous injection in rats; assay type: functional

T1 sequence (P14416 whole entry): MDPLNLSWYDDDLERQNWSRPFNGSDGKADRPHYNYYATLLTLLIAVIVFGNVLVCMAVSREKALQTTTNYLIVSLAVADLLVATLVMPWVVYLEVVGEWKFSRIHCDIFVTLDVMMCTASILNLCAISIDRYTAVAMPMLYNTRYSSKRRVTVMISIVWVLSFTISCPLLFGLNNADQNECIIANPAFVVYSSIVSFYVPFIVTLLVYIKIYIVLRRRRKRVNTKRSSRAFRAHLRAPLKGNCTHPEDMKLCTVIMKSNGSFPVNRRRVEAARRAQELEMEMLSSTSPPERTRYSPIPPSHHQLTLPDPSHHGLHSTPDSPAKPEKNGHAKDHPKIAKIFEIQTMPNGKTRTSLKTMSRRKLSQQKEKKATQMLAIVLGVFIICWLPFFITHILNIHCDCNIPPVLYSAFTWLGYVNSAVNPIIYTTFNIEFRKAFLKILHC

In the case of CCCN1CC[C@H]2c3cccc(O)c3CC[C@H]21 (racemic), the Ki (D(2) dopamine receptor [1]) is reported as 218 nM, the Intrinsic activity (D(2) dopamine receptor [2]) is reported as 1% and the Ki (D(2) dopamine receptor [3]) is reported as greater than 1000 nM.
CCCN1CC[C@@H]2c3cccc(OC)c3CC[C@H]21 (racemic) showed a Locomotor activity (Mus musculus [4]) of 1, a Max temperature decrease (Mus musculus [5]) of 3.9 and a Locomotor activity (Mus musculus [6]) of 123. For the same molecule, the Locomotor activity (Mus musculus [7]) was 188, the Locomotor activity (Mus musculus [8]) was 10 and the Locomotor activity (Mus musculus [9]) was 27. The Locomotor activity (Mus musculus [10]) was 87, the Locomotor activity (Mus musculus [11]) was 6 and the Intrinsic activity (D(2) dopamine receptor [2]) was 0%. It also gave a Locomotor activity (Mus musculus [12]) of 64, a Locomotor activity (Mus musculus [13]) of 122 and a Locomotor activity (Mus musculus [14]) of 98. The Locomotor activity (Mus musculus [15]) was 53, the ED50 (Mus musculus [16]) was 34 µmol/kg and the Locomotor activity (Mus musculus [17]) was 34.
Work on C=CCN1CC[C@@H]2c3c(O)cccc3CC[C@H]21 (racemic) yielded a Locomotor activity (Mus musculus [4]) of 26, a Locomotor activity (Mus musculus [18]) of 33 and a Locomotor activity (Mus musculus [19]) of 5. It also gave a Locomotor activity (Mus musculus [20]) of 9, a Locomotor activity (Mus musculus [21]) of 53 and a Locomotor activity (Mus musculus [6]) of 66. It also gave a Locomotor activity (Mus musculus [7]) of 73, a Locomotor activity (Mus musculus [22]) of 5 and a Ki (D(2) dopamine receptor [1]) of 25 nM. The Locomotor activity (Mus musculus [23]) was 49, the Locomotor activity (Mus musculus [24]) was 1 and the Locomotor activity (Mus musculus [10]) was 46. The Intrinsic activity (D(2) dopamine receptor [2]) was 13% and the Locomotor activity (Mus musculus [25]) was 71.
For C=CCN1CC[C@H]2c3cccc(O)c3CC[C@H]21 (racemic), the Locomotor activity (Mus musculus [4]) was 0, the Locomotor activity (Mus musculus [18]) was 52 and the Locomotor activity (Mus musculus [19]) was 111. It also gave a Locomotor activity (Mus musculus [20]) of 21, a Locomotor activity (Mus musculus [21]) of 111 and a Locomotor activity (Mus musculus [6]) of 111. The Locomotor activity (Mus musculus [7]) was 130, the Locomotor activity (Mus musculus [22]) was 8 and the Ki (D(2) dopamine receptor [1]) was 75 nM. For the same molecule, the Locomotor activity (Mus musculus [23]) was 32, the Locomotor activity (Mus musculus [24]) was 12 and the Locomotor activity (Mus musculus [10]) was 101. It also gave an Intrinsic activity (D(2) dopamine receptor [2]) of 29%, a Ki (D(2) dopamine receptor [3]) of 198 nM and a Locomotor activity (Mus musculus [25]) of 88.
In the case of CCCN1CCC2c3c(O)cccc3CCC21 (racemic), the ED50 (Mus musculus [26]) is reported as 154 µmol/kg, the Max temperature decrease (Mus musculus [5]) is reported as 8.8 and the IC50 (D(2) dopamine receptor [27]) is reported as greater than 1000 nM. The Max temperature decrease (Mus musculus [28]) was 2.6 and the ED50 (Mus musculus [16]) was 2.1 µmol/kg.
Work on C=CCN1CCC2c3cccc(O)c3CC[C@@H]21 (single isomer, unassigned; (+)) yielded a Locomotor activity (Mus musculus [4]) of 11, a Locomotor activity (Mus musculus [18]) of 37 and a Locomotor activity (Mus musculus [19]) of 62. The Locomotor activity (Mus musculus [20]) was 62, the Locomotor activity (Mus musculus [21]) was 90 and the Locomotor activity (Mus musculus [6]) was 76. For the same molecule, the Locomotor activity (Mus musculus [7]) was 79, the Locomotor activity (Mus musculus [22]) was 42 and the Ki (D(2) dopamine receptor [1]) was 59 nM. It also gave a Locomotor activity (Mus musculus [23]) of 20, a Locomotor activity (Mus musculus [24]) of 17 and a Locomotor activity (Mus musculus [10]) of 50. It also gave an ED50 (Rattus norvegicus [29]) of 2.82 µmol/kg, an Intrinsic activity (D(2) dopamine receptor [2]) of 50% and a Ki (D(2) dopamine receptor [3]) of 259 nM. For the same molecule, the Locomotor activity (Mus musculus [25]) was 54.
With C=CCN1CCC2c3c(cccc3OC)CC[C@@H]21 (single isomer, unassigned; (+)) the Time (Mus musculus [30]) was 0.8 s, the Locomotor activity (Mus musculus [31]) was 73 and the Locomotor activity (Mus musculus [4]) was 8. The Time (Mus musculus [32]) was 27 s, the Locomotor activity (Mus musculus [33]) was 67 and the Max temperature decrease (Mus musculus [5]) was 3.9. For the same molecule, the Locomotor activity (Mus musculus [6]) was 92, the Time (Mus musculus [34]) was 0.6 s and the Time (Mus musculus [35]) was 0.9 s. The Locomotor activity (Mus musculus [36]) was 54, the Locomotor activity (Mus musculus [7]) was 103 and the Locomotor activity (Mus musculus [37]) was 12. The Locomotor activity (Mus musculus [38]) was 115, the Locomotor activity (Mus musculus [10]) was 83 and the Time (Mus musculus [39]) was 1 s. For the same molecule, the Intrinsic activity (D(2) dopamine receptor [2]) was 17%, the Locomotor activity (Mus musculus [40]) was 114 and the Locomotor activity (Mus musculus [41]) was 18. It also gave an ED50 (Mus musculus [16]) of 62 µmol/kg, a Time (Mus musculus [42]) of 21 s and a Locomotor activity (Mus musculus [43]) of 77.
CCCN(CCC)C1CCc2cccc(O)c2C1 (centres undefined) [8-OH-DPAT] showed a Ki (D(2) dopamine receptor [3]) greater than 1000 nM, an ED50 (Rattus norvegicus [44]) of 2.25 µmol/kg and an ED50 (Rattus norvegicus [45]) of 0.005 µmol/kg.
CN1CCc2cccc3c2[C@H]1Cc1ccc(O)c(O)c1-3 [APOMORPHINE] was tested, and the ED50 (Rattus norvegicus [29]) was 0.03 µmol/kg.
CN(C)CCCN1c2ccccc2Sc2ccc(Cl)cc21 [CHLORPROMAZINE] gave an Intrinsic activity (D(2) dopamine receptor [2]) of 5%.
